Normalised inhibition (eCFP-eYFP dual reporter) data for 31 substances are collected here from the OligoGym collection.

Oligonucleotides are written 5' to 3', each unit as a sugar letter and its base; * is a phosphorothioate linkage, no mark a phosphodiester; rarer units and linkages stand in square brackets, end groups in braces. Plain capitals give the bases only. Oligonucleotides are given in HELM: sugar(base)linkage, 5' to 3'; d 2'-deoxyribose, r ribose, m 2'-O-methylribose, p phosphate. ss, as = sense and antisense strand; d = 2'-deoxy (DNA); r = 2'-OH (RNA)
Further: test concentration or dose not given here.

One series addresses UBE2L3. Kind of series: reporter assay of Huesken 2005. As to conditions: siRNA. On the technique in general: In a reporter assay the amount or activity of a reporter protein is the signal.
For the substance “sense rUrCrCrUrGrArCrArArCrCrCrUrCrCrArUrArUdTdT / antisense rArUrArUrGrGrArGrGrGrUrUrGrUrCrArGrGrAdAdC”, the normalised inhibition (eCFP-eYFP dual reporter) was 69.7%.

For “sense rCrCrArGrUrArArUrUrArGrUrGrCrCrGrArArAdTdT / antisense rUrUrUrCrGrGrCrArCrUrArArUrUrArCrUrGrGdCdA”, the normalised inhibition (eCFP-eYFP dual reporter) came out at 82.8%.

“sense rUrArUrUrGrArCrUrUrGrGrCrArArGrGrGrCrUdTdT / antisense rArGrCrCrCrUrUrGrCrCrArArGrUrCrArArUrAdAdA” registered a normalised inhibition (eCFP-eYFP dual reporter) of 75.3%.

Take “sense rArUrCrGrArCrGrArArArArGrGrGrGrCrArGrGdTdT / antisense rCrCrUrGrCrCrCrCrUrUrUrUrCrGrUrCrGrArUdGdT”: the normalised inhibition (eCFP-eYFP dual reporter) amounted to 32%.

In turn, “sense rArGrArUrCrUrArUrCrArCrCrCrArArArCrArUdTdT / antisense rArUrGrUrUrUrGrGrGrUrGrArUrArGrArUrCrUdTdT” displayed a normalised inhibition (eCFP-eYFP dual reporter) of 73.1%.

On to “sense rCrCrGrUrArArCrArUrCrCrArGrGrUrUrGrArUdTdT / antisense rArUrCrArArCrCrUrGrGrArUrGrUrUrArCrGrGdAdA”, for which the normalised inhibition (eCFP-eYFP dual reporter) worked out at 61.4%.

Substance “sense rGrCrUrArArUrUrUrArUrUrGrArCrUrUrGrGrCdTdT / antisense rGrCrCrArArGrUrCrArArUrArArArUrUrArGrCdTdT” gave a normalised inhibition (eCFP-eYFP dual reporter) of 46.2%.

Substance “sense rArArGrCrCrArGrCrArArCrCrArArArArCrCrGdTdT / antisense rCrGrGrUrUrUrUrGrGrUrUrGrCrUrGrGrCrUrUdCdC” gave a normalised inhibition (eCFP-eYFP dual reporter) of 41.7%.

In turn, “sense rCrArGrCrCrUrGrArGrCrArCrCrCrGrCrUrUrCdTdT / antisense rGrArArGrCrGrGrGrUrGrCrUrCrArGrGrCrUrGdGdG” registered a normalised inhibition (eCFP-eYFP dual reporter) of 37.1%.

For “sense rArArArCrArArArGrArUrCrUrArUrCrArCrCrCdTdT / antisense rGrGrGrUrGrArUrArGrArUrCrUrUrUrGrUrUrUdTdA”, the normalised inhibition (eCFP-eYFP dual reporter) was 50.1%.

“sense rUrCrArUrArGrCrArCrUrGrGrUrGrArArUrGrAdTdT / antisense rUrCrArUrUrCrArCrCrArGrUrGrCrUrArUrGrAdGdG” came in with a normalised inhibition (eCFP-eYFP dual reporter) of 77.5%.

Turning to “sense rCrArGrCrArArCrCrArArArArCrCrGrArCrCrAdTdT / antisense rUrGrGrUrCrGrGrUrUrUrUrGrGrUrUrGrCrUrGdGdC”, the normalised inhibition (eCFP-eYFP dual reporter) came to 60%.

For the substance “sense rCrCrUrCrCrArUrArUrGrArUrArArGrGrGrArGdTdT / antisense rCrUrCrCrCrUrUrArUrCrArUrArUrGrGrArGrGdGdT”, the normalised inhibition (eCFP-eYFP dual reporter) is 81.2%.

On to “sense rCrCrCrGrCrUrUrCrGrGrGrCrUrGrArCrCrUrAdTdT / antisense rUrArGrGrUrCrArGrCrCrCrGrArArGrCrGrGrGdTdG”, for which the normalised inhibition (eCFP-eYFP dual reporter) turned out to be 62.3%.

The substance “sense rCrCrArArArArCrCrGrArCrCrArArGrUrArArUdTdT / antisense rArUrUrArCrUrUrGrGrUrCrGrGrUrUrUrUrGrGdTdT” yielded a normalised inhibition (eCFP-eYFP dual reporter) of 84.6%.

As for “sense rUrArCrCrCrArUrUrCrArArArCrCrArCrCrGrAdTdT / antisense rUrCrGrGrUrGrGrUrUrUrGrArArUrGrGrGrUrAdCdT”, the normalised inhibition (eCFP-eYFP dual reporter) is 71.8%.

“sense rCrArArArArCrCrGrArCrCrArArGrUrArArUrCdTdT / antisense rGrArUrUrArCrUrUrGrGrUrCrGrGrUrUrUrUrGdGdT”: the normalised inhibition (eCFP-eYFP dual reporter) is 56.2%.

Consider “sense rCrCrUrArGrCrUrGrArArGrArArUrArCrUrCrUdTdT / antisense rArGrArGrUrArUrUrCrUrUrCrArGrCrUrArGrGdTdC”, for which the normalised inhibition (eCFP-eYFP dual reporter) is 63.9%.

The substance “sense rArGrCrArCrCrCrGrCrUrUrCrGrGrGrCrUrGrAdTdT / antisense rUrCrArGrCrCrCrGrArArGrCrGrGrGrUrGrCrUdCdA” registered a normalised inhibition (eCFP-eYFP dual reporter) of 37.6%.

For a further series, the target named is CDC34. Kind of series: reporter assay of Huesken 2005. Conditions: siRNA.
Substance “RNA1{r(A)p.r(C)p.r(G)p.r(C)p.r(U)p.r(G)p.r(G)p.r(C)p.r(C)p.r(G)p.r(A)p.r(G)p.r(U)p.r(A)p.r(C)p.r(U)p.r(G)p.r(C)p.r(G)p.d(T)p.d(T)}|RNA2{r(C)p.r(G)p.r(C)p.r(A)p.r(G)p.r(U)p.r(A)p.r(C)p.r(U)p.r(C)p.r(G)p.r(G)p.r(C)p.r(C)p.r(A)p.r(G)p.r(C)p.r(G)p.r(U)p.d(G)p.d(G)}$$$RNA1{StrandType:ss}|RNA2{StrandType:as}$” came in with a normalised inhibition (eCFP-eYFP dual reporter) of 52.4%.

“RNA1{r(G)p.r(G)p.r(A)p.r(A)p.r(G)p.r(C)p.r(A)p.r(G)p.r(G)p.r(U)p.r(C)p.r(C)p.r(U)p.r(G)p.r(G)p.r(G)p.r(G)p.r(A)p.r(C)p.d(T)p.d(T)}|RNA2{r(G)p.r(U)p.r(C)p.r(C)p.r(C)p.r(C)p.r(A)p.r(G)p.r(G)p.r(A)p.r(C)p.r(C)p.r(U)p.r(G)p.r(C)p.r(U)p.r(U)p.r(C)p.r(C)p.d(G)p.d(G)}$$$RNA1{StrandType:ss}|RNA2{StrandType:as}$” gave a normalised inhibition (eCFP-eYFP dual reporter) of 58.4%.

Take “RNA1{r(C)p.r(C)p.r(C)p.r(A)p.r(A)p.r(C)p.r(A)p.r(C)p.r(C)p.r(U)p.r(U)p.r(C)p.r(U)p.r(C)p.r(G)p.r(C)p.r(C)p.r(C)p.r(G)p.d(T)p.d(T)}|RNA2{r(C)p.r(G)p.r(G)p.r(G)p.r(C)p.r(G)p.r(A)p.r(G)p.r(A)p.r(A)p.r(G)p.r(G)p.r(U)p.r(G)p.r(U)p.r(U)p.r(G)p.r(G)p.r(G)p.d(C)p.d(T)}$$$RNA1{StrandType:ss}|RNA2{StrandType:as}$”: the normalised inhibition (eCFP-eYFP dual reporter) was 45.9%.

In turn, “RNA1{r(C)p.r(A)p.r(G)p.r(G)p.r(U)p.r(C)p.r(C)p.r(U)p.r(G)p.r(G)p.r(G)p.r(G)p.r(A)p.r(C)p.r(C)p.r(A)p.r(A)p.r(G)p.r(G)p.d(T)p.d(T)}|RNA2{r(C)p.r(C)p.r(U)p.r(U)p.r(G)p.r(G)p.r(U)p.r(C)p.r(C)p.r(C)p.r(C)p.r(A)p.r(G)p.r(G)p.r(A)p.r(C)p.r(C)p.r(U)p.r(G)p.d(C)p.d(T)}$$$RNA1{StrandType:ss}|RNA2{StrandType:as}$” registered a normalised inhibition (eCFP-eYFP dual reporter) of 43%.

Substance “RNA1{r(C)p.r(G)p.r(A)p.r(G)p.r(G)p.r(G)p.r(C)p.r(G)p.r(A)p.r(U)p.r(C)p.r(U)p.r(A)p.r(U)p.r(A)p.r(C)p.r(A)p.r(A)p.r(C)p.d(T)p.d(T)}|RNA2{r(G)p.r(U)p.r(U)p.r(G)p.r(U)p.r(A)p.r(U)p.r(A)p.r(G)p.r(A)p.r(U)p.r(C)p.r(G)p.r(C)p.r(C)p.r(C)p.r(U)p.r(C)p.r(G)p.d(T)p.d(C)}$$$RNA1{StrandType:ss}|RNA2{StrandType:as}$” gave a normalised inhibition (eCFP-eYFP dual reporter) of 72.7%.

For “RNA1{r(A)p.r(C)p.r(A)p.r(G)p.r(A)p.r(C)p.r(A)p.r(U)p.r(C)p.r(A)p.r(U)p.r(C)p.r(C)p.r(G)p.r(G)p.r(A)p.r(A)p.r(G)p.r(C)p.d(T)p.d(T)}|RNA2{r(G)p.r(C)p.r(U)p.r(U)p.r(C)p.r(C)p.r(G)p.r(G)p.r(A)p.r(U)p.r(G)p.r(A)p.r(U)p.r(G)p.r(U)p.r(C)p.r(U)p.r(G)p.r(U)p.d(G)p.d(T)}$$$RNA1{StrandType:ss}|RNA2{StrandType:as}$”, the normalised inhibition (eCFP-eYFP dual reporter) turned out to be 34.9%.

The substance “RNA1{r(C)p.r(C)p.r(C)p.r(C)p.r(A)p.r(U)p.r(C)p.r(G)p.r(A)p.r(C)p.r(U)p.r(A)p.r(C)p.r(C)p.r(C)p.r(A)p.r(U)p.r(A)p.r(C)p.d(T)p.d(T)}|RNA2{r(G)p.r(U)p.r(A)p.r(U)p.r(G)p.r(G)p.r(G)p.r(U)p.r(A)p.r(G)p.r(U)p.r(C)p.r(G)p.r(A)p.r(U)p.r(G)p.r(G)p.r(G)p.r(G)p.d(A)p.d(A)}$$$RNA1{StrandType:ss}|RNA2{StrandType:as}$” came in with a normalised inhibition (eCFP-eYFP dual reporter) of 44.9%.

Substance “RNA1{r(U)p.r(G)p.r(G)p.r(C)p.r(C)p.r(G)p.r(A)p.r(G)p.r(U)p.r(A)p.r(C)p.r(U)p.r(G)p.r(C)p.r(G)p.r(U)p.r(G)p.r(A)p.r(A)p.d(T)p.d(T)}|RNA2{r(U)p.r(U)p.r(C)p.r(A)p.r(C)p.r(G)p.r(C)p.r(A)p.r(G)p.r(U)p.r(A)p.r(C)p.r(U)p.r(C)p.r(G)p.r(G)p.r(C)p.r(C)p.r(A)p.d(G)p.d(C)}$$$RNA1{StrandType:ss}|RNA2{StrandType:as}$” yielded a normalised inhibition (eCFP-eYFP dual reporter) of 65.2%.

“RNA1{r(A)p.r(C)p.r(C)p.r(A)p.r(U)p.r(U)p.r(C)p.r(U)p.r(C)p.r(C)p.r(U)p.r(G)p.r(A)p.r(G)p.r(U)p.r(G)p.r(U)p.r(G)p.r(A)p.d(T)p.d(T)}|RNA2{r(U)p.r(C)p.r(A)p.r(C)p.r(A)p.r(C)p.r(U)p.r(C)p.r(A)p.r(G)p.r(G)p.r(A)p.r(G)p.r(A)p.r(A)p.r(U)p.r(G)p.r(G)p.r(U)p.d(C)p.d(C)}$$$RNA1{StrandType:ss}|RNA2{StrandType:as}$”: the normalised inhibition (eCFP-eYFP dual reporter) is 81.3%.

With “RNA1{r(C)p.r(U)p.r(C)p.r(C)p.r(U)p.r(G)p.r(A)p.r(G)p.r(U)p.r(G)p.r(U)p.r(G)p.r(A)p.r(U)p.r(C)p.r(U)p.r(C)p.r(C)p.r(C)p.d(T)p.d(T)}|RNA2{r(G)p.r(G)p.r(G)p.r(A)p.r(G)p.r(A)p.r(U)p.r(C)p.r(A)p.r(C)p.r(A)p.r(C)p.r(U)p.r(C)p.r(A)p.r(G)p.r(G)p.r(A)p.r(G)p.d(A)p.d(A)}$$$RNA1{StrandType:ss}|RNA2{StrandType:as}$”, the normalised inhibition (eCFP-eYFP dual reporter) came to 42.3%.

Turning to “RNA1{r(G)p.r(G)p.r(G)p.r(C)p.r(G)p.r(G)p.r(C)p.r(U)p.r(A)p.r(C)p.r(U)p.r(U)p.r(C)p.r(A)p.r(A)p.r(G)p.r(G)p.r(C)p.r(G)p.d(T)p.d(T)}|RNA2{r(C)p.r(G)p.r(C)p.r(C)p.r(U)p.r(U)p.r(G)p.r(A)p.r(A)p.r(G)p.r(U)p.r(A)p.r(G)p.r(C)p.r(C)p.r(G)p.r(C)p.r(C)p.r(C)p.d(T)p.d(C)}$$$RNA1{StrandType:ss}|RNA2{StrandType:as}$”, the normalised inhibition (eCFP-eYFP dual reporter) was 29.8%.

In the case of “RNA1{r(U)p.r(G)p.r(A)p.r(U)p.r(C)p.r(U)p.r(C)p.r(C)p.r(C)p.r(U)p.r(C)p.r(C)p.r(U)p.r(G)p.r(A)p.r(A)p.r(C)p.r(G)p.r(A)p.d(T)p.d(T)}|RNA2{r(U)p.r(C)p.r(G)p.r(U)p.r(U)p.r(C)p.r(A)p.r(G)p.r(G)p.r(A)p.r(G)p.r(G)p.r(G)p.r(A)p.r(G)p.r(A)p.r(U)p.r(C)p.r(A)p.d(C)p.d(A)}$$$RNA1{StrandType:ss}|RNA2{StrandType:as}$”, the normalised inhibition (eCFP-eYFP dual reporter) turned out to be 70%.
